Molecular target: T1, recombinant human GST-SYK (Homo sapiens, UniProt P43405)
T1 construct: purchased Carna Biosciences 08-176
Assay: Homogeneous Time-Resolved Fluorescence (HTRF) assay for the recombinant human Syk enzyme
Type: biochemical
Details: HTRF assay, recombinant human GST-SYK; IC50 given as class symbols; read-out: rhSYK Activity
In short: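 GST-hSYK ([…]) was preincubated with inhibitor (0.1% DMSO) for 10 min at room temperature in Tris-HCl pH 7.5 with tween 20 and DTT. Biotinylated peptide (250 nM), Mg (5 mM) and ATP (25 μM) were added for 45 min. The reaction was quenched with EDTA, and phosphotyrosine was read by Eu-antibody/SA-APC HTRF after 30 min.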

IC50 [µM] | SMILES
0.1 to 1 | Cc1cc(Nc2nccc(C(F)(F)F)n2)cc(-c2ccc(N3CCC4(CCN(C)C4=O)CC3)nc2)c1 [Example 7.15, 2-methyl-8-[5-(3-methyl-5-{[4-(trifluoromethyl)pyrimidin-2-yl]amino}phenyl)pyridin-2-yl]-2,8-diazaspiro[4.5]decan-1-one]
< 0.1 | Cc1cc(Nc2nccc(C(F)(F)F)n2)cc(-c2ccc(C(=O)N3CCNC(=O)C3)nc2)c1 [Example 16.4, 4-{[5-(3-Methyl-5-{[4-(trifluoromethyl)pyrimidin-2-yl]amino}phenyl)pyridin-2-yl]carbonyl}piperazin-2-one]
0.1 to 1 | COc1ccc(-c2cc(C)cc(Nc3nccc(C(F)(F)F)n3)c2)cn1 [Example 4.5, N-[3-(6-methoxypyridin-3-yl)-5-methylphenyl]-4-(trifluoromethyl)pyrimidin-2-amine]
< 0.1 | Cc1cc(Nc2nccc(C(F)(F)F)n2)cc(-c2ccc(S(=O)(=O)NC3CCNC3=O)nc2)c1 (centres unmarked) [Example 21.3, 5-(3-methyl-5-{[4-(trifluoromethyl)pyrimidin-2-yl]amino}phenyl)-N-(2-oxopyrrolidin-3-yl)pyridine-2-sulfonamide]
< 0.1 | Cc1cc(Nc2nccc(C(F)(F)F)n2)cc(-c2ccnc(N[C@@H]3CCC(=O)NC3)c2)c1 [Example 15.66, (5R)-5-{[4-(3-methyl-5-{[4-(trifluoromethyl)pyrimidin-2-yl]amino}phenyl)pyridin-2-yl]amino}piperidin-2-one]
< 0.1 | Cc1cc(Nc2nccc(C(F)(F)F)n2)cc(-c2ccc(C(=O)O)nc2)c1 [Example 2.1, 5-(3-Methyl-5-{[4-(trifluoromethyl)pyrimidin-2-yl]amino}phenyl)pyridine-2-carboxylic acid]
0.1 to 1 | CC(=O)N1CCN(c2ccc(-c3cc(C)cc(Nc4nccc(C(F)(F)F)n4)c3)cn2)CC1 [Example 7.45, N-{3-[6-(4-acetylpiperazin-1-yl)pyridin-3-yl]-5-methylphenyl}-4-(trifluoromethyl)pyrimidin-2-amine]
0.1 to 1 | Cc1cc(Nc2nccc(C(F)(F)F)n2)cc(-c2ccnc(C3(O)COC(C)(C)OC3)c2)c1 [Example 9.62, 2,2-dimethyl-5-[4-(3-methyl-5-{[4-(trifluoromethyl)pyrimidin-2-yl]amino}phenyl)pyridin-2-yl]-1,3-dioxan-5-ol]
< 0.1 | Cc1cc(Nc2nccc(C(F)(F)F)n2)cc(-c2ccnc(N3CC(C)NC(C)C3)c2)c1 (centres unmarked) [Example 15.71, N-{3-[2-(3,5-dimethylpiperazin-1-yl)pyridin-4-yl]-5-methylphenyl}-4-(trifluoromethyl)pyrimidin-2-amine]
1 to 10 | COc1cccc(-c2cccc(Nc3nccc(C(F)(F)F)n3)c2)n1 [Example 2.3, N-[3-(6-methoxypyridin-2-yl)phenyl]-4-(trifluoromethyl)pyrimidin-2-amine]
< 0.1 | Cc1cc(Nc2nccc(C(F)(F)F)n2)cc(-c2ccc(N3CCN(CC(=O)O)CC3)nc2)c1 [Example 7.140, {4-[5-(3-methyl-5-{[4-(trifluoromethyl)pyrimidin-2-yl]amino}phenyl)pyridin-2-yl]piperazin-1-yl}acetic acid]
0.1 to 1 | CS(=O)(=O)c1ccc(-c2cccc(Nc3nccc(C(F)(F)F)n3)c2)nc1 [Example 2.6, N-{3-[5-(methylsulfonyl)pyridin-2-yl]phenyl}-4-(trifluoromethyl)pyrimidin-2-amine]
< 0.1 | Cc1cc(Nc2nccc(C(F)(F)F)n2)cc(-c2ccc(N[C@@H](CO)C(=O)O)nc2)c1 [Example 7.109, N-[5-(3-methyl-5-{[4-(trifluoromethyl)pyrimidin-2-yl]amino}phenyl)pyridin-2-yl]-L-serine]
< 0.1 | COCCNc1cncc(-c2cc(C)cc(Nc3nccc(C(F)(F)F)n3)c2)c1 [Example 15.1, N-(3-{5-[(2-Methoxyethyl)amino]pyridin-3-yl}-5-methylphenyl)-4-(trifluoromethyl)pyrimidin-2-amine]
< 0.1 | Cc1cc(Nc2nccc(C(F)(F)F)n2)cc(-c2ccc(C3(O)CCN(C(N)=O)CC3)nc2)c1 [Example 10.3, 4-hydroxy-4-[5-(3-methyl-5-{[4-(trifluoromethyl)pyrimidin-2-yl]amino}phenyl)pyridin-2-yl]piperidine-1-carboxamide]
< 0.1 | Cc1cc(Nc2nccc(C(F)(F)F)n2)cc(-c2ccc(NCCN)nc2)c1 [Example 7.25A, N-[5-(3-methyl-5-{[4-(trifluoromethyl)pyrimidin-2-yl]amino}phenyl)pyridin-2-yl]ethane-1,2-diamine]
< 0.1 | Cc1cc(Nc2nccc(C(F)(F)F)n2)cc(-c2ccc(C(O)C(F)(F)C(=O)O)nc2)c1 (centres unmarked) [Example 24.2, 2,2-Difluoro-3-hydroxy-3-[5-(3-methyl-5-{[4-(trifluoromethyl)pyrimidin-2-yl]amino}phenyl)pyridin-2-yl]propanoic acid]
0.1 to 1 | Cc1cc(Nc2nccc(C(F)(F)F)n2)cc(-c2ccc(C(=O)N3CCN(C)CC3)nc2)c1 [Example 16.12, N-(3-methyl-5-{6-[(4-methylpiperazin-1-yl)carbonyl]pyridin-3-yl}phenyl)-4-(trifluoromethyl)pyrimidin-2-amine]
< 0.1 | Cc1cc(Nc2nccc(C(F)(F)F)n2)cc(-c2cncc(NCc3ccc[nH]c3=O)c2)c1 [Example 15.21, 3-({[5-(3-methyl-5-{[4-(trifluoromethyl)pyrimidin-2-yl]amino}phenyl)pyridin-3-yl]amino}methyl)pyridin-2(1H)-one]
< 0.1 | Cc1cc(Nc2nccc(C(F)(F)F)n2)cc(-c2ccc(C(=O)N3CCC[S+]([O-])CC3)nc2)c1 (centres unmarked) [Example 16.52, N-(3-methyl-5-{6-[(1-oxido-1,4-thiazepan-4-yl)carbonyl]pyridin-3-yl}phenyl)-4-(trifluoromethyl)pyrimidin-2-amine]
< 0.1 | Cc1cc(Nc2nccc(C(F)(F)F)n2)cc(-c2ccnc(N3CCCC4(CCOC4=O)C3)c2)c1 (centres unmarked) [Example 15.30, 7-[4-(3-methyl-5-{[4-(trifluoromethyl)pyrimidin-2-yl]amino}phenyl)pyridin-2-yl]-2-oxa-7-azaspiro[4.5]decan-1-one]
0.1 to 1 | Cc1cc(Nc2nccc(C(F)(F)F)n2)cc(-c2ccc(C(F)(F)F)nc2)c1 [Example 4.6, N-{3-methyl-5-[6-(trifluoromethyl)pyridin-3-yl]phenyl}-4-(trifluoromethyl)pyrimidin-2-amine]
< 0.1 | Cc1cc(Nc2nccc(C(F)(F)F)n2)cc(-c2ccc(C3(O)COC3)nc2)c1 [Example 9.55, 3-[5-(3-methyl-5-{[4-(trifluoromethyl)pyrimidin-2-yl]amino}phenyl)pyridin-2-yl]oxetan-3-ol]
< 0.1 | COc1ccnc(Nc2cc(C)cc(-c3ccc([C@]4(O)CC[C@H](C(=O)O)CC4)nc3)c2)n1 [Example 9.36, trans-4-hydroxy-4-(5-{3-[(4-methoxypyrimidin-2-yl)amino]-5-methylphenyl}pyridin-2-yl)cyclohexanecarboxylic acid]
< 0.1 | Cc1cc(Nc2nccc(OC3CCNCC3)n2)cc(-c2cccnc2)c1 [Example 20.2, N-[3-methyl-5-(pyridin-3-yl)phenyl]-4-(piperidin-4-yloxy)pyrimidin-2-amine]
0.1 to 1 | Cc1cc(Nc2nccc(C(F)(F)F)n2)cc(-c2ccc(C(=O)NC3CCOC3)nc2)c1 (centres unmarked) [Example 16.33, 5-(3-methyl-5-{[4-(trifluoromethyl)pyrimidin-2-yl]amino}phenyl)-N-(tetrahydrofuran-3-yl)pyridine-2-carboxamide]
